# Laboratory results reported in US20230263812A1, “Compositions and Methods for Treating COVID-19 and/or Acute Respiratory Failure and/or Acute Respiratory Distress Syndrome Using Tetrahydrocannabinol and Compositions Including Same” (priority 2020, published 2023).
# Where a name gives a salt, the structure may show the parent alone. Read-outs that look alike come from different tables or passages of the source.
# Assays:
# [1] = cited from earlier work; for share of the urinary excretion products of fluvoxamine: 5 mg radiolabelled dose of fluvoxamine maleate, fluvoxamine acid value is together with its N-acetylated analog; for bound to plasma protein: mostly albumin, concentration range 20 to 2000 ng/mL
# serotonin uptake = settings: in vitro, rats; cited from earlier work
# [2] = cited from earlier work
# serotonin reuptake = settings: in vitro as well as in vivo; cited from earlier work
# σ-1 non-opioid receptor = σ-1 non-opioid receptor (Homo sapiens, UniProt Q99720); settings: cited from earlier work
# norepinephrine reuptake = settings: in vitro, rats; cited from earlier work
# COVID-19 = assay: Clinical study of oral dronabinol plus standard of care in COVID-19 patients hospitalized for hypoxia; type: in vivo, human; settings: for LOS: LOS = length of stay (days)
# [3] = cited from earlier work; remark: listed apart in the source
# σ-1 non-opioid receptor, sequence (Q99720 whole entry): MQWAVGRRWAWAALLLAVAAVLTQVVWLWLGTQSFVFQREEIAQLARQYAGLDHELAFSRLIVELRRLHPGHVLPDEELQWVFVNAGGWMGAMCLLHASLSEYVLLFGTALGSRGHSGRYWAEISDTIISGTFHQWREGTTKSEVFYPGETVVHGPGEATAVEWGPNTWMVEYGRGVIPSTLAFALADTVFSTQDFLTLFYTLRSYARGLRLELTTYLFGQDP
structure (smiles),measurement,setting,value
NCCO/N=C(\CCCC(=O)O)c1ccc(C(F)(F)F)cc1 [fluvoxamine acid],share of the urinary excretion products of fluvoxamine,[1],about 60%
same,potency on serotonin uptake relative to the parent compound,serotonin uptake,1-2 orders of magnitude less potent
"COCCCC/C(=N\OCCN)c1ccc(C(F)(F)F)cc1 [fluvoxamine, 2-[(E)-[5-methoxy-1-[4-(trifluoromethyl)phenyl]pentylidene]amino]oxyethanamine]",mean apparent volume of distribution,"[1]; human, in vivo",approximately 25 L/kg
same,mean apparent volume of distribution,"[1]; human, in vivo, listed as Fluvoxamine",25 L/kg
same,bound to plasma protein,[1],Approximately 80%
same,bound to plasma protein,[1]; listed as Fluvoxamine,80%
same,decrease in clearance in association with hepatic dysfunction,"[2]; cross study comparison, healthy subjects versus patients with hepatic dysfunction",30%
same,clearance reduced in elderly patients,"[2]; human, in vivo",about 50%
same,serotonin reuptake inhibition,serotonin reuptake,potent
same,"agonistic sigma1 binding affinity, rank among agents tested",σ-1 non-opioid receptor,strongest
COCCCC/C(=N\OCCN)c1ccc(C(F)(F)F)cc1 [fluvoxamine maleate],effect of food on oral bioavailability,"[1]; human, in vivo, po",not significantly affected by food
COCCCC/C(=N\OCCO)c1ccc(C(F)(F)F)cc1 [fluvoxamine ethanol],share of the urinary excretion products of fluvoxamine,[1],about 10%
same,inhibition of serotonin uptake,serotonin uptake,inactive
same,norepinephrine reuptake inhibition,norepinephrine reuptake,inactive
"CCCCCc1cc(O)c2c(c1)OC(C)(C)[C@@H]1CCC(C)=C[C@@H]21 [dronabinol, (−)-(6aR,10aR)-6,6,9-trimethyl-3-pentyl-6a,7,8,10a-tetrahydro-6H-benzo[c]-chromen-1-ol]",survival rate,COVID-19; 2.5 mg dronabinol regimen,88.9%
same,LOS,COVID-19; 2.5 mg dronabinol regimen,17.4
same,# Survived,"COVID-19; 2.5 mg dronabinol regimen, total 9 in group",8
same,survival rate,COVID-19; 2.5 mg group (2.5 mg twice orally daily),89%
same,survival rate,COVID-19; 5 mg dronabinol regimen,94.1%
same,LOS,COVID-19; 5 mg dronabinol regimen,8.8
same,# Survived,"COVID-19; 5 mg dronabinol regimen, total 68 in group",64
same,survival rate,COVID-19; 5 mg treated group (5 mg orally twice daily),93.5%
same,survival rate,"COVID-19; all dronabinol-treated patients (77), standard of care alone 80%",93.5%
same,Mortality rate,"COVID-19; hospitalized COVID-19 patients requiring oxygen supplementation, 2.5 mg or 5 mg dronabinol orally BID plus standard of care, 77 patients, untreated group 20.5%",6.5%
same,"average first peak C-reactive protein (CRP) levels, difference","COVID-19; lower in the treatment group than untreated, p-value 0.07, not statistically significant",14%
same,reduction in mortality,"COVID-19; treated group (77) versus untreated/control group (44), p-value 0.02",68%
same,Length of stay in the hospital,"COVID-19; treated group, untreated group 15.6 days",9.9 days
same,reduction in length of stay,"COVID-19; treated versus untreated group, p-value 0.01",37%
same,time for which low levels of metabolites are detected in the urine and feces,[3]; following single dose administration,more than 5 weeks
same,radio-labeled oral dose recovered from the feces within 72 hours,"[3]; in vivo, po",about half
same,radio-labeled oral dose recovered from urine,"[3]; in vivo, po",10-15%
same,absorbed after single oral doses,[3]; oral,90-95%
same,plasma protein binding,[3]; Δ9-THC and its metabolites,approximately 97%
